Laboratory results taken from ChEMBL document CHEMBL1208683, “Insights into binding modes of adenosine A(2B) antagonists with ligand-based and receptor-based methods” (Eur J Med Chem, 2010).

Tests used:
Adenosine receptor A2b = target: T1, Adenosine receptor A2b (Homo sapiens, UniProt P29275)
T1 sequence (P29275 whole entry): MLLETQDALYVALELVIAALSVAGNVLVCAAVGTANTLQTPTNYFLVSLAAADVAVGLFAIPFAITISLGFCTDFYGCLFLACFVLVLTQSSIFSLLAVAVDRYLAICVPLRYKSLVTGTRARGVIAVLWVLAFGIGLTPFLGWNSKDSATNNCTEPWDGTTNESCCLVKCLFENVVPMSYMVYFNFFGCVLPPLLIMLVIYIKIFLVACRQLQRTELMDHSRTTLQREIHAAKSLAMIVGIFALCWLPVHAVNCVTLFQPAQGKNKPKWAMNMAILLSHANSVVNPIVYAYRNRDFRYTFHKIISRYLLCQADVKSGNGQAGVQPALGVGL
Description: Antagonist activity against human adenosine A2B receptor

Adenosine receptor A1 [1] = target: T2, Adenosine receptor A1 (Rattus norvegicus, UniProt P25099); assay: Antagonist activity against rat adenosine A1 receptor; type: functional
T2 sequence (P25099 whole entry): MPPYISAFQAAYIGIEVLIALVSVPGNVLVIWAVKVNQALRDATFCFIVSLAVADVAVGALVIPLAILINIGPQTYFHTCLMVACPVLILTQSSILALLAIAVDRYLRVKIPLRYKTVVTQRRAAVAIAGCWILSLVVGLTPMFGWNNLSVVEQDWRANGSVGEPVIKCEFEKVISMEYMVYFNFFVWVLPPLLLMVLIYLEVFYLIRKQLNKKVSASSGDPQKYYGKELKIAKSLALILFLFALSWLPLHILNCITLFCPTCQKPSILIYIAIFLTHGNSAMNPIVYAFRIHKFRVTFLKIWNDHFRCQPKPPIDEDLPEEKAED

Adenosine receptor A2a [2] = target: Adenosine receptor A2a (Rattus norvegicus, UniProt P30543); assay: Antagonist activity against rat adenosine A2A receptor; type: functional
Adenosine receptor A1 [3] = target: T3, Adenosine receptor A1 (Homo sapiens, UniProt P30542)
T3 sequence (P30542 whole entry): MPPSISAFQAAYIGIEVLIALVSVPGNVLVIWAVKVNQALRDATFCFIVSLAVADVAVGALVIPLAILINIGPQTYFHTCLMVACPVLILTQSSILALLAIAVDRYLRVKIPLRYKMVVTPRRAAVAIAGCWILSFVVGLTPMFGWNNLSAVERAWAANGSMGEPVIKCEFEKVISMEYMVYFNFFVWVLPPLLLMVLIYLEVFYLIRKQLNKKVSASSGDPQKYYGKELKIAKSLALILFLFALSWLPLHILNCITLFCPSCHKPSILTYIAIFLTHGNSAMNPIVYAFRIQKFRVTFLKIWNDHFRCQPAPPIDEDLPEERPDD
Description: Antagonist activity against human adenosine A1 receptor

Adenosine receptor A3 = target: T4, Adenosine receptor A3 (Homo sapiens, UniProt P0DMS8)
T4 sequence (P0DMS8 whole entry): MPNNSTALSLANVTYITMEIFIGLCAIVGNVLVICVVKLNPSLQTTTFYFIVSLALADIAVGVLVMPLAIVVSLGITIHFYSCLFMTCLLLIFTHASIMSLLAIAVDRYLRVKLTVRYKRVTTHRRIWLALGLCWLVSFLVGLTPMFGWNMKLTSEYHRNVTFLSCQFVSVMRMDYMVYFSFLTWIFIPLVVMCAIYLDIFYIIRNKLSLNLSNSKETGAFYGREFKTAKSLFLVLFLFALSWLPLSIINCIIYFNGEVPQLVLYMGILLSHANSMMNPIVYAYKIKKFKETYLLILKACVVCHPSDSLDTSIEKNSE
Description: Antagonist activity against human adenosine A3 receptor

Adenosine receptor A2a [4] = target: T5, Adenosine receptor A2a (Homo sapiens, UniProt P29274)
Description: (§1) Antagonist activity against human adenosine A2A receptor

Adenosine receptor A2a [5] = target: T5, Adenosine receptor A2a; remark: listed apart in the source
Description: as §1

Sequence of Adenosine receptor A2a (Rattus norvegicus, UniProt P30543) (P30543 whole entry): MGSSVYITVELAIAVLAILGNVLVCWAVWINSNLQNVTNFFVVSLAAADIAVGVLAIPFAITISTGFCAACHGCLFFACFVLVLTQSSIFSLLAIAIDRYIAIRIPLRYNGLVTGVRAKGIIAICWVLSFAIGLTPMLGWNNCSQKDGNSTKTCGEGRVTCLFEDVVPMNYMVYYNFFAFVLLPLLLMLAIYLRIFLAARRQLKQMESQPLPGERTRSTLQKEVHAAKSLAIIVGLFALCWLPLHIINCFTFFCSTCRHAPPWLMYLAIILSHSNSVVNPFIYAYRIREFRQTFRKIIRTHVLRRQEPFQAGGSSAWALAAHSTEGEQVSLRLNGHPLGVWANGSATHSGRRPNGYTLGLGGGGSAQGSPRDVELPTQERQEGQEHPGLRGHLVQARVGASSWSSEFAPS
T5 sequence (P29274 whole entry): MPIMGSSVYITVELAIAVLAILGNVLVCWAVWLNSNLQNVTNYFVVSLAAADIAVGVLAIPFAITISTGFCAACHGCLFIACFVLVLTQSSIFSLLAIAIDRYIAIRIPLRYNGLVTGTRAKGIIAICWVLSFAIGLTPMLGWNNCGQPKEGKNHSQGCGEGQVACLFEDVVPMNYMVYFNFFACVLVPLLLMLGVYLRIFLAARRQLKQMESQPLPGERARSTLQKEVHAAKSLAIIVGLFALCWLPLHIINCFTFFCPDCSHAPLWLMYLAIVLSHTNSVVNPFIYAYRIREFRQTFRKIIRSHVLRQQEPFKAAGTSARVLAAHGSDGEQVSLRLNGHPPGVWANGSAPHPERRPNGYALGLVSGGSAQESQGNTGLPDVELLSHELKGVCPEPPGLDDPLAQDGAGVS

| Compound | Ki (Adenosine receptor A2b) | Ki (Adenosine receptor A3) | further results |
| --- | --- | --- | --- |
| COc1ccc2c(C)nc(NC3=NCC(=O)N3)nc2c1 | 0.112 µM |  | Ki (Adenosine receptor A1 [1]): 1.29 µM; Ki (Adenosine receptor A2a [2]): 2.4 µM |
| Cn1c(=O)c2[nH]c(-c3ccc(S(=O)(=O)NCC(=O)O)cc3)nc2n(C)c1=O |  | > 10 µM |  |
| Cn1c(=O)c2c(nc(-c3ccccc3)n2O)n(C)c1=O | 1.66 µM | > 9 µM | Activity (Adenosine receptor A2a [5]): 12% |
| CCOc1cccc2c(C)nc(N=C(N)N)nc12 | 1.78 µM |  | Ki (Adenosine receptor A1 [1]): 1.33 µM; Ki (Adenosine receptor A2a [2]): 0.624 µM |

The next lines start with results.

| Ki (Adenosine receptor A2b) | Ki (Adenosine receptor A3) | Compound | further results |
| --- | --- | --- | --- |
| 1.29 µM | 2.81 µM | Nc1nc(-n2cncn2)c2nnn(Cc3ccccc3F)c2n1 | Ki (Adenosine receptor A1 [3]): 2.96 µM; Ki (Adenosine receptor A2a [4]): 0.4 µM |
|  | 0.054 µM | CCCn1c(=O)c2nc(-c3cnn(Cc4cc(C(F)(F)F)ccc4Cl)c3)[nH]c2n(CCC)c1=O |  |
|  | > 1 µM | CCCn1c(=O)[nH]c2[nH]c(-c3ccc(S(=O)(=O)NCc4ccccc4)cc3)nc2c1=O |  |
